Reference: US3985761A, “Nitrothiazolyl derivatives of nitrostyrene” (priority 1974, dated 1976)
Converted amounts (≈) assume the structure as drawn.

Columns and labels:
Candida albicans = experiment: Antimicrobial serial dilution (MIC), C.a; assay type: cell-based
[1] = tested on: Trichophyton mentagrophytes; experiment: Antimicrobial serial dilution (MIC), T.m; assay type: cell-based
microsporum gypseum = experiment: Antimicrobial serial dilution (MIC), M.gy; assay type: cell-based; conditions: Nannizzia gypsea
Phialophora jeanselmei = experiment: Antimicrobial serial dilution (MIC), Ph.je; assay type: cell-based; conditions: Exophiala jeanselmei
Nocardia asteroides = experiment: Antimicrobial serial dilution (MIC), N.a; assay type: cell-based
Aspergillus fumigatus = experiment: Antimicrobial serial dilution (MIC), A.f; assay type: cell-based
Staph. aureus = experiment: Antimicrobial serial dilution (MIC), S.a; assay type: cell-based; conditions: Staphylococcus aureus
[2] = tested on: antibiotic resistant Staph aureus; experiment: Antimicrobial serial dilution (MIC), A/R S.a; assay type: cell-based; conditions: Staphylococcus aureus, read-out: MIC A/R S.a
E.coli = experiment: Antimicrobial serial dilution (MIC), E.c.; assay type: cell-based; conditions: Escherichia coli
S.Shigae = experiment: microbe, parasite or virus in culture; assay type: cell-based; conditions: Shigella dysenteriae, read-out: MIC S.s
S. typhi = experiment: Antimicrobial serial dilution (MIC), S.t; assay type: cell-based; conditions: Salmonella enterica
Proteus vulgaris ox 19 = experiment: Antimicrobial serial dilution (MIC), Pr.ox; assay type: cell-based; conditions: OX19
Ps. aeruginosa = experiment: Antimicrobial serial dilution (MIC), P.a; assay type: cell-based; conditions: Pseudomonas aeruginosa
Hymenolepsis nana = experiment: Activity against tapeworms Hymenolepsis nana in mice; assay type: in vivo, Hymenolepsis nana (infected Albimo mice); conditions: Mus musculus, po, 72 h; 400 mg/kg/day × 3 days, gavage; surviving mice only; read-out: Activity: % of infected mice getting 100% clearance
Method: The anthelmintic properties of the products of the invention have been determined as follows:
Albimo mice of either sex (18-20 g.weight range) were administered by gavage 0.2 ml of the standard inoculum (containing 1000 viable eggs). 20 days later, the faecal matter was checked for Hymenolipis nana eggs. Mice showing the presence of H nana eggs were taken for experiments. They were classified on the weight basis. 5 animals were taken in each cage.
Compounds of the invention under investigation were suspended in 0.2% tragacanth. Concentrations were adjusted in such a way that 0.2 ml conformed to particular dosage schedule for each compound. They were administered by gavage in fasting condition in the morning on 21st day post infection, once daily for 3 consecutive days. For each set of test compound group, one cage of infected control mice was kept. These received saline for 3 days.
After 3 consecutive days of administration, all mice were kept fasting on the subsequent day (24th day post infection) and sacrificed on the 25th day. Results of surviving mice only have been taken. From each mouse, the whole intestine including caecum was collected in a petri dish with water. It was cut open longitudinally and was examined for adult worms and scolices. Absolute clearance of worms and scolices in individual mouse was taken as a criterion for assessing the results of each group.
The data on some of the compounds studied are represented in Table II

## CC(=Cc1ccc(OC(=O)NC2CCCCC2)cc1)[N+](=O)[O-] [drawing 16]
Candida albicans
  MIC: 25 µg/mL (≈ 82.1 µM)
[1]
  MIC: 0.78 µg/mL (≈ 2.56 µM)
Microsporum gypseum
  MIC: 6.25 µg/mL (≈ 20.5 µM)
Phialophora jeanselmei
  MIC: 6.25 µg/mL (≈ 20.5 µM)
Nocardia asteroides
  MIC: 50 µg/mL (≈ 164 µM)
Aspergillus fumigatus
  MIC: 6.25 to 12.5 µg/mL (≈ 20.5 to 41.1 µM)

## CC(=Cc1ccc(OC(=O)Nc2ccc(C)cc2)cc1)[N+](=O)[O-] [drawing 13]
Candida albicans
  MIC: 12.5 µg/mL (≈ 40 µM)
[1]
  MIC: 3.12 µg/mL (≈ 10 µM)
Microsporum gypseum
  MIC: 1.56 to 3.12 µg/mL (≈ 4.99 to 10 µM)
Phialophora jeanselmei
  MIC: 6.25 µg/mL (≈ 20 µM)
Nocardia asteroides
  MIC: 25.5 µg/mL (≈ 81.6 µM)
Aspergillus fumigatus
  MIC: 12.5 µg/mL (≈ 40 µM)

## CC(=Cc1ccc(O)c(Cl)c1)[N+](=O)[O-] [drawing 10]
Staph. aureus
  MIC: 3.12 µg/mL (≈ 14.6 µM)
[2]
  MIC: 3.12 µg/mL (≈ 14.6 µM)
E.coli
  MIC: 12.5 to 25 µg/mL (≈ 58.5 to 117 µM)
S.Shigae
  MIC: 25 µg/mL (≈ 117 µM)
S. typhi
  MIC: 50 µg/mL (≈ 234 µM)
Proteus vulgaris ox 19
  MIC: 6.25 µg/mL (≈ 29.3 µM)
Ps. aeruginosa
  MIC: ≥ 50 µg/mL

## CC(=Cc1ccc(OC(=O)Nc2ccc(C)cc2)c(Cl)c1)[N+](=O)[O-]
Hymenolepsis nana
  responders at 400 mg/kg: 100%

## CC(=Cc1cccc(O)c1)[N+](=O)[O-] [drawing 18]
Candida albicans
  MIC: 12.5 µg/mL (≈ 69.8 µM)
[1]
  MIC: 1.56 µg/mL (≈ 8.71 µM)
Microsporum gypseum
  MIC: 1.56 µg/mL (≈ 8.71 µM)
Phialophora jeanselmei
  MIC: 3.12 µg/mL (≈ 17.4 µM)
Nocardia asteroides
  MIC: 25 µg/mL (≈ 140 µM)
Aspergillus fumigatus
  MIC: 6.25 µg/mL (≈ 34.9 µM)

## CC(=Cc1ccc(OC(=O)Nc2ccccc2)cc1)[N+](=O)[O-] [drawing 7]
Staph. aureus
  MIC: 6.25 µg/mL (≈ 21 µM)
[2]
  MIC: 3.12 to 6.25 µg/mL (≈ 10.5 to 21 µM)
E.coli
  MIC: 6.25 µg/mL (≈ 21 µM)
S.Shigae
  MIC: 6.25 µg/mL (≈ 21 µM)
S. typhi
  MIC: 50 µg/mL (≈ 168 µM)
Proteus vulgaris ox 19
  MIC: 12.5 µg/mL (≈ 41.9 µM)
Ps. aeruginosa
  MIC: ≥ 50 µg/mL

## CC(=Cc1ccc(OC(=O)Nc2ccc(Br)cc2)c(Cl)c1)[N+](=O)[O-] [drawing 22]
Candida albicans
  MIC: 25 µg/mL (≈ 60.7 µM)
[1]
  MIC: 1.56 µg/mL (≈ 3.79 µM)
Microsporum gypseum
  MIC: 1.56 µg/mL (≈ 3.79 µM)
Phialophora jeanselmei
  MIC: 3.12 µg/mL (≈ 7.59 µM)
Nocardia asteroides
  MIC: 50 µg/mL (≈ 121 µM)
Aspergillus fumigatus
  MIC: 6.25 µg/mL (≈ 15.2 µM)

## O=[N+]([O-])C=Cc1cc(Cl)ccc1O [drawing 11]
Staph. aureus
  MIC: 3.12 µg/mL (≈ 15.7 µM)
[2]
  MIC: 3.12 µg/mL (≈ 15.7 µM)
E.coli
  MIC: 50 µg/mL (≈ 251 µM)
S.Shigae
  MIC: 50 µg/mL (≈ 251 µM)
S. typhi
  MIC: 50 µg/mL (≈ 251 µM)
Proteus vulgaris ox 19
  MIC: 25 µg/mL (≈ 125 µM)
Ps. aeruginosa
  MIC: ≥ 50 µg/mL

## CC(=Cc1ccc(OC(=O)Nc2ccccc2)cc1)[N+](=O)[O-] [drawing 25]
Hymenolepsis nana
  responders at 400 mg/kg: 100%

## CC(=Cc1ccc(OC(=O)Nc2ccc(Br)cc2)c(Cl)c1)[N+](=O)[O-] [drawing 12]
Staph. aureus
  MIC: 6.25 µg/mL (≈ 15.2 µM)
[2]
  MIC: 6.25 µg/mL (≈ 15.2 µM)
E.coli
  MIC: 50 µg/mL (≈ 121 µM)
S.Shigae
  MIC: 25 µg/mL (≈ 60.7 µM)
S. typhi
  MIC: > 50 µg/mL
Proteus vulgaris ox 19
  MIC: 6.25 µg/mL (≈ 15.2 µM)
Ps. aeruginosa
  MIC: ≥ 50 µg/mL

## CC(=Cc1ccc(OC(=O)Nc2ccc(C)cc2)cc1)[N+](=O)[O-] [drawing 3]
Staph. aureus
  MIC: 6.25 µg/mL (≈ 20 µM)
[2]
  MIC: 6.25 µg/mL (≈ 20 µM)
E.coli
  MIC: 6.25 µg/mL (≈ 20 µM)
S.Shigae
  MIC: 12.5 µg/mL (≈ 40 µM)
S. typhi
  MIC: 50 µg/mL (≈ 160 µM)
Proteus vulgaris ox 19
  MIC: 6.25 µg/mL (≈ 20 µM)
Ps. aeruginosa
  MIC: ≥ 50 µg/mL

## CC(=Cc1ccc(OC(=O)Nc2ccc(Br)cc2)cc1)[N+](=O)[O-] [drawing 4]
Staph. aureus
  MIC: 6.25 µg/mL (≈ 16.6 µM)
[2]
  MIC: 12.5 µg/mL (≈ 33.1 µM)
E.coli
  MIC: 6.25 µg/mL (≈ 16.6 µM)
S.Shigae
  MIC: 6.25 to 12.5 µg/mL (≈ 16.6 to 33.1 µM)
S. typhi
  MIC: ≥ 50 µg/mL
Proteus vulgaris ox 19
  MIC: 6.25 µg/mL (≈ 16.6 µM)
Ps. aeruginosa
  MIC: ≥ 50 µg/mL

## CC(=Cc1cccc(OC(=O)Nc2ccccc2)c1)[N+](=O)[O-]
Hymenolepsis nana
  responders at 400 mg/kg: 100%

## CCCCNC(=O)Oc1ccc(C=C(C)[N+](=O)[O-])cc1 [drawing 5]
Staph. aureus
  MIC: 6.25 µg/mL (≈ 22.5 µM)
[2]
  MIC: 6.25 µg/mL (≈ 22.5 µM)
E.coli
  MIC: 6.25 to 12.5 µg/mL (≈ 22.5 to 44.9 µM)
S.Shigae
  MIC: 12.5 µg/mL (≈ 44.9 µM)
S. typhi
  MIC: 50 µg/mL (≈ 180 µM)
Proteus vulgaris ox 19
  MIC: 6.25 µg/mL (≈ 22.5 µM)
Ps. aeruginosa
  MIC: ≥ 50 µg/mL

## CC(=Cc1ccc(OC(=O)Nc2ccccc2)c(Cl)c1)[N+](=O)[O-]
Hymenolepsis nana
  responders at 400 mg/kg: 100%
